target: T1, p53 Y220C (Homo sapiens, UniProt P04637, Y220C); assay: In vitro DNA binding activity assay (HTRF / TR-FRET): stabilization of p53 Y220C and increase of its DNA binding activity; assay type: biochemical; conditions: recombinant His-tagged p53 Y220C DNA binding domain (aa 94-312), biotin-labeled consensus DNA, incubated at 27° C. or 29° C. for 60 min
T1 construct: The recombinant protein was a truncation mutant containing only amino acids 94-312 of p53; made in house; host or cells: E. coli
T1 sequence (P04637 94-312, change not shown): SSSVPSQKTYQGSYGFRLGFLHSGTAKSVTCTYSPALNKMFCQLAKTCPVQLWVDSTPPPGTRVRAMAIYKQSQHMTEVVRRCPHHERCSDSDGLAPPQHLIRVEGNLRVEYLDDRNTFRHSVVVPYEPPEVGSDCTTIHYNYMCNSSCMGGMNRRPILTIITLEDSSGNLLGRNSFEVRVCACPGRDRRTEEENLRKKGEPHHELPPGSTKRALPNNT
Outline: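 Compounds from 4.5 mM DMSO stocks, 3-fold serial dilutions; room-temperature incubations of 15 and 20 min. SC150 = concentration raising DNA binding by 50% over no-compound control.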

Q: How did the “SC150 (concentration of the compound required to increase the DNA binding activity by 50%)” value turn out when `COCC(O)CN1CCC(Nc2cccc3c2cc(C#CCNc2ccc(S(C)(=O)=O)cc2OC)n3CCC(F)(F)F)CC1` (stereo not drawn) [Compound 711A, 1-{4-[(2-{3-[(4-methanesulfonyl-2-methoxyphenyl)amino]prop-1-yn-1-yl}-1-(3,3,3-trifluoropropyl)-1H-indol-4-yl)amino]piperidin-1-yl}-3-methoxypropan-2-ol] was run?
A: The value was “++ (++ = 0.05 μM ≤ SC150 < 0.1 μM)”.

Q: How did the “SC150 (concentration of the compound required to increase the DNA binding activity by 50%)” value turn out when `COCC(O)CN1CCC(Nc2cccc3c2cc(C#CCNc2ccc(S(C)(=O)=O)cc2OC)n3CC(C)(F)F)CC1` (stereo not drawn) [Compound 712A, 1-(4-{[1-(2,2-difluoropropyl)-2-{3-[(4-methanesulfonyl-2-methoxyphenyl)amino]prop-1-yn-1-yl}-1H-indol-4-yl]amino}piperidin-1-yl)-3-methoxypropan-2-ol] was run?
A: Its value is “++ (++ = 0.05 μM ≤ SC150 < 0.1 μM)”.

Q: How did the “SC150 (concentration of the compound required to increase the DNA binding activity by 50%)” value turn out when `COCC(O)CN1CCC(Nc2cccc3c2cc(C#CCNc2ccc(S(C)(=O)=O)cc2Cl)n3CC(F)(F)F)CC1` (stereo not drawn) [Compound 713A, 1-{4-[(2-{3-[(2-chloro-4-methanesulfonylphenyl)amino]prop-1-yn-1-yl}-1-(2,2,2-trifluoroethyl)-1H-indol-4-yl)amino]piperidin-1-yl}-3-methoxypropan-2-ol] was run?
A: Its value is “+ (+ = 0 μM ≤ SC150 < 0.05 μM)”.

Q: For `COCC(O)CN1CCC(Nc2cccc3c2cc(C#CCNc2c(F)cc(S(C)(=O)=O)cc2OC)n3CC(F)(F)F)CC1` (stereo not drawn) [Compound 714A], which “SC150 (concentration of the compound required to increase the DNA binding activity by 50%)” value is on record?
A: Its value is “++++ (++++ = 0.2 μM ≤ SC150 < 1 μM)”.

Q: For `CCC(=O)O[C@H](COC)CN1CCC(Nc2cccc3c2cc(C#CCNc2ccc(S(C)(=O)=O)cc2OC)n3CC(F)(F)F)CC1` [Compound 715A, (2S)-1-{4-[(2-{3-[(4-methanesulfonyl-2-methoxyphenyl)amino]prop-1-yn-1-yl}-1-(2,2,2-trifluoroethyl)-1H-indol-4-yl)amino]piperidin-1-yl}-3-methoxypropan-2-yl propanoate], which “SC150 (concentration of the compound required to increase the DNA binding activity by 50%)” value is on record?
A: Its value is “+ (+ = 0 μM ≤ SC150 < 0.05 μM)”.

Q: Which “SC150 (concentration of the compound required to increase the DNA binding activity by 50%)” value does the source give for `COCC(O)CN1CCC(Nc2cccc3c2cc(C#CCNc2ccc(Cl)cc2OC)n3CC(F)(F)F)CC1` (stereo not drawn) [Compound 716A, 1-{4-[(2-{3-[(4-chloro-2-methoxyphenyl)amino]prop-1-yn-1-yl}-1-(2,2,2-trifluoroethyl)-1H-indol-4-yl)amino]piperidin-1-yl}-3-methoxypropan-2-ol] here?
A: Its value is “++ (++ = 0.05 μM ≤ SC150 < 0.1 μM)”.

Q: For `COc1cc(S(C)(=O)=O)ccc1NCC#Cc1cc2c(NC3CCN(c4nc(C)cs4)CC3)cccc2n1CC(F)(F)F` [Compound 719A], which “SC150 (concentration of the compound required to increase the DNA binding activity by 50%)” value is on record?
A: The value was “+++ (+++ = 0.1 μM ≤ SC150 < 0.2 μM)”.

Q: With `COc1cc(S(C)(=O)=O)ccc1NCC#Cc1cc2c(NC3CCN(C4CC4)CC3)cccc2n1CC(F)(F)F` [Compound 720A, N-(1-cyclopropylpiperidin-4-yl)-2-{3-[(4-methanesulfonyl-2-methoxyphenyl)amino]prop-1-yn-1-yl}-1-(2,2,2-trifluoroethyl)-1H-indol-4-amine] as the compound, how does the “SC150 (concentration of the compound required to increase the DNA binding activity by 50%)” value read?
A: The value was “+ (+ = 0 μM ≤ SC150 < 0.05 μM)”.

Q: How did the “SC150 (concentration of the compound required to increase the DNA binding activity by 50%)” value turn out when `COc1cc(C(=O)O)ccc1NCC#Cc1cc2c(NC3CCN(C4CC4)CC3)cccc2n1CC(F)(F)F` [Compound 721A, 4-[(3-{4-[(1-cyclopropylpiperidin-4-yl)amino]-1-(2,2,2-trifluoroethyl)-1H-indol-2-yl}prop-2-yn-1-yl)amino]-3-methoxybenzoic acid] was run?
A: Its value is “+ (+ = 0 μM ≤ SC150 < 0.05 μM)”.

Q: `COc1cc(S(C)(=O)=O)ccc1NCC#Cc1cc2c(NC3CCN([C@@H]4CCOC4)CC3)cccc2n1CC(F)(F)F` [Compound 722A, 2-{3-[(4-methanesulfonyl-2-methoxyphenyl)amino]prop-1-yn-1-yl}-N-{1-[(3R)-oxolan-3-yl]piperidin-4-yl}-1-(2,2,2-trifluoroethyl)-1H-indol-4-amine] was tested. Which “SC150 (concentration of the compound required to increase the DNA binding activity by 50%)” value did it give?
A: The value was “+ (+ = 0 μM ≤ SC150 < 0.05 μM)”.

Q: Which “SC150 (concentration of the compound required to increase the DNA binding activity by 50%)” value does the source give for `COc1cc(S(C)(=O)=O)ccc1NCC#Cc1cc2c(NC3CCN([C@H]4CCOC4)CC3)cccc2n1CC(F)(F)F` [Compound 723A, 2-{3-[(4-methanesulfonyl-2-methoxyphenyl)amino]prop-1-yn-1-yl}-N-{1-[(3S)-oxolan-3-yl]piperidin-4-yl}-1-(2,2,2-trifluoroethyl)-1H-indol-4-amine] here?
A: Its value is “+ (+ = 0 μM ≤ SC150 < 0.05 μM)”.

Q: How did the “SC150 (concentration of the compound required to increase the DNA binding activity by 50%)” value turn out when `COc1cc(C(=O)O)ccc1NCC#Cc1cc2c(NC3CCN(C4CCOCC4)CC3)cccc2n1CC(F)(F)F` [Compound 724A, 3-methoxy-4-{1[3-(4-{[1-(oxan-4-yl)piperidin-4-yl]amino}-1-(2,2,2-trifluoroethyl)-1H-indol-2-yl)prop-2-yn-1-yl]amino}benzoic acid] was run?
A: Its value is “+ (+ = 0 μM ≤ SC150 < 0.05 μM)”.

Q: `CC(=O)N1CCC(Nc2cccc3c2cc(C#CCNc2ccc(S(C)(=O)=O)cc2OCC#N)n3CC(F)(F)F)CC1` [Compound 729A, 2-{2-[(3-{4-[(1-acetylpiperidin-4-yl)amino]-1-(2,2,2-trifluoroethyl)-1H-indol-2-yl}prop-2-yn-1-yl)amino]-5-methanesulfonylphenoxy}acetonitrile] was tested. Which “SC150 (concentration of the compound required to increase the DNA binding activity by 50%)” value did it give?
A: The value was “+ (+ = 0 μM ≤ SC150 < 0.05 μM)”.

Q: With `COc1cc(S(=O)(=O)N(C)C)ccc1NCC#Cc1cc2c(NC3CCN(C(=O)CO)CC3)cccc2n1CC(F)(F)F` [Compound 730A] as the compound, how does the “SC150 (concentration of the compound required to increase the DNA binding activity by 50%)” value read?
A: Its value is “+ (+ = 0 μM ≤ SC150 < 0.05 μM)”.

Q: For `CS(=O)(=O)c1ccc(NCC#Cc2cc3c(NC4CCN(C(=O)CO)CC4)cccc3n2CC(F)(F)F)c(O)c1` [Compound 731A, 2-hydroxy-1-{4-[(2-{3-[(2-hydroxy-4-methanesulfonylphenyl)amino]prop-1-yn-1-yl}-1-(2,2,2-trifluoroethyl)-1H-indol-4-yl)amino]piperidin-1-yl}ethan-1-one], which “SC150 (concentration of the compound required to increase the DNA binding activity by 50%)” value is on record?
A: The value was “+ (+ = 0 μM ≤ SC150 < 0.05 μM)”.

Q: How did the “SC150 (concentration of the compound required to increase the DNA binding activity by 50%)” value turn out when `COc1cc(S(N)(=O)=O)ccc1NCC#Cc1cc2c(N[C@H]3CCN(C(C)=O)[C@@H](C)C3)cccc2n1CC(F)(F)F` [Compound 740A, 4-{[3-(4-{[(2S, 4S)-1-acetyl-2-methylpiperidin-4-yl]amino}-1-(2,2,2-trifluoroethyl)-1H-indol-2-yl)prop-2-yn-1-yl]amino}-3-methoxybenzene-1-sulfonamide] was run?
A: Its value is “+ (+ = 0 μM ≤ SC150 < 0.05 μM)”.

Q: Which “SC150 (concentration of the compound required to increase the DNA binding activity by 50%)” value does the source give for `COCC(=O)N1CCC(Nc2cccc3c2cc(C#CCNc2ccc(S(C)(=O)=O)cc2OC)n3CC(F)(F)F)CC1` [Compound 741A, 1-{4-[(2-{3-[(4-methanesulfonyl-2-methoxyphenyl)amino]prop-1-yn-1-yl}-1-(2,2,2-trifluoroethyl)-1H-indol-4-yl)amino]piperidin-1-yl}-2-methoxyethan-1-one] here?
A: The value was “+ (+ = 0 μM ≤ SC150 < 0.05 μM)”.

Q: With `COc1cc(S(C)(=O)=O)ccc1NCC#Cc1cc2c(NC3CCN(C(=O)C(C)O)CC3)cccc2n1CC(F)(F)F` (stereo not drawn) [Compound 742A] as the compound, how does the “SC150 (concentration of the compound required to increase the DNA binding activity by 50%)” value read?
A: The value was “+ (+ = 0 μM ≤ SC150 < 0.05 μM)”.
